In patent publication US20260043031A1, “COMPOSITIONS AND METHODS FOR INHIBITING ADENYLATE CYCLASE 9 (AC9)” (INSTITUT DE CARDIOLOGIE DE MONTRÉAL, priority 2022, published 2026):

Columns and labels:
Assay type in all cases: cell-based, human
HepG2 cells [1] = assay: Cellular cholesterol efflux toward apo A-I
Experimental: (§1) HepG2 (hepatocellular carcinoma) cells were growth in Eagle's minimum essential medium (EMEM). The medium was supplemented with 10% FBS, 100 units/ml penicillin, and 100 μg/ml streptomycin. Cells were cultured in 5% CO2 at 37° C. and were harvested once a week with trypsin-EDTA. For experiments, cells were trypsinized, seeded, and cultured at least for 3 days prior to the assays.
(§2) HepG2 cells were transfected with ADCY9, SREBP2, LDLr or scramble siRNA in the presence of Lipofectamine RNAiMAX in Opti-MEM for 72 h unless otherwise stated.
Cells were labeled in EMEM containing 2 μCi/ml [1,2-^3H]cholesterol plus 1% FBS for 24 h at 37° C. Then, cells were equilibrated with EMEM containing 0.2% BSA for 18 h at 37° C. with or without H89 or GSK-2033. An efflux assay was performed in the absence or presence of 10 μg/ml of apo A-I. At the end of the incubation, the medium was harvested and cells were solubilized. Medium and cells were counted for radioactivity in a […]. The percentage of efflux was calculated by subtracting the radioactive counts in the medium in the absence of cholesterol acceptors from the radioactive counts in the presence of acceptor and then dividing by the sum of the radioactive counts in the medium plus the cell fraction.

LDLr = assay: Western blot of LDLr protein in HepG2 cells; conditions: for LDLr protein expression in human HepG2 cells (% of siScramble): HepG2 transfected with siRNA, Western blot, actin loading control, n=8
Experimental: as §1, §2
(§3) For Western blotting, cells were washed with cold PBS and then scraped and lysed in ice-cold lysis buffer (50 mM Tris, pH 7.5, 150 mM NaCl, 1% Triton X-100, 0.1% SDS, 0.5% sodium deoxycholate, 1 mM PMSF, and protease inhibitor cocktail). Lysate was microcentrifugated for 20 min at 4° C. and supernatant was assessed for cell proteins. Proteins ([…]) were separated by sodium dodecyl sulfate-polyacrylamide gel electrophoresis (SDS-PAGE) followed by Western blotting to PVDF membrane.
Protein expression is represented as a percentage of the control, siScramble. n=8. Paired t-test: *=p≤0.05; **=p≤0.01; and ***=p≤0.001, relative to siScramble.

HepG2 cells [2] = assay: 3H-CE-LDL cell association assay; conditions: HepG2, siAC9 plus 2 μM H89, 24 h
Experimental: as §1, §2

ABCA1 = assay: Western blot of ABCA1 protein in HepG2 cells; conditions: HepG2, siAC9 plus 2 μM H89, 24 h
Experimental: as §1, §2, §3

AC9 = assay: Western blot of AC9 protein after siRNA transfection of HepG2 cells; conditions: HepG2 transfected with siRNA, actin loading control, n=8
Experimental: as §1, §2, §3
Results were obtained by Western blotting and actin was used as a loading control. Protein expression is represented as a percentage of the control, siScramble. n=8. Paired t-test: *=p≤0.05; **=p≤0.01; and ***=p≤0.001, relative to siScramble.

[3] = HepG2, siAC9 plus 2 μM H89, 24 h

Cc1cc(C)c(S(=O)(=O)N(Cc2ccc(-c3cccc(S(C)(=O)=O)c3)cc2)Cc2ccc(C(F)(F)F)o2)c(C)c1 [GSK-2033]
ABCA1-mediated cholesterol efflux, effect on siAC9-mediated increase (HepG2 cells [1]; HepG2, siAC9 plus 5 μM GSK-2033, 24 h): significantly reduce

O=S(=O)(NCCNC/C=C/c1ccc(Br)cc1)c1cccc2cnccc12 [H89]
LDLr protein expression, effect on siAC9-mediated increase (LDLr; [3]): reversed
3H-CE-LDL association in siAC9-treated cells (HepG2 cells [2]): reduction
ABCA1 protein expression, effect on siAC9-mediated increase (ABCA1): reversed
cholesterol efflux in siAC9-treated cells (HepG2 cells [1]; [3]): not

CC(C)c1c(C(=O)Nc2ccccc2)c(-c2ccccc2)c(-c2ccc(F)cc2)n1CC[C@@H](O)C[C@@H](O)CC(=O)O [atorvastatin, reference compound]
LDLr protein expression, combined treatment (LDLr; HepG2, 300 μM exogenous cAMP plus 5 μM atorvastatin): increased

ADCY9-1: siRNA, sense SEQ ID NO: 3 CGAAAUGGAAGAUGGGAAAUU, antisense SEQ ID NO: 4 UUUCCCAUCUUCCAUUUCGUU; targets ADCY9 mRNA Exon 2 (listed as RNA, chemistry not fully specified)
LDLr protein expression in human HepG2 cells (% of siScramble) (LDLr): 131% **
AC9 protein expression in human HepG2 cells (% of siScramble) (AC9): 24% ***

ADCY9-2: siRNA, sense SEQ ID NO: 5 CGAAACAGGAAUAGAAGAAUU, antisense SEQ ID NO: 6 UUCUUCUAUUCCUGUUUCGUU; targets ADCY9 mRNA Exon 10 (listed as RNA, chemistry not fully specified)
LDLr protein expression in human HepG2 cells (% of siScramble) (LDLr): 122% **
AC9 protein expression in human HepG2 cells (% of siScramble) (AC9): 16% ***

ADCY9-3: siRNA, sense SEQ ID NO: 7 AGGAAGAGGUCAUAAAGAAUU, antisense SEQ ID NO: 8 UUCUUUAUGACCUCUUCCUUU; targets ADCY9 mRNA Exon 5-6 (listed as RNA, chemistry not fully specified)
LDLr protein expression in human HepG2 cells (% of siScramble) (LDLr): 126% *
AC9 protein expression in human HepG2 cells (% of siScramble) (AC9): 17% ***

ADCY9-4: siRNA, sense SEQ ID NO: 9 GCACCAAGAUCCAGAGCAUUU, antisense SEQ ID NO: 10 AUGCUCUGGAUCUUGGUGCUU; targets ADCY9 mRNA Exon 10 (listed as RNA, chemistry not fully specified)
LDLr protein expression in human HepG2 cells (% of siScramble) (LDLr): 150% **
AC9 protein expression in human HepG2 cells (% of siScramble) (AC9): 15% ***

ADCY9-ID1039: siRNA, sense SEQ ID NO: 1 CCUGAUGAAAGAUUACUUUTT, antisense SEQ ID NO: 2 AAAGUAAUCUUUCAUCAGGCT; targets ADCY9 mRNA Exon 5 (chemistry not fully specified)
LDLr protein expression in human HepG2 cells (% of siScramble) (LDLr): 123% *
AC9 protein expression in human HepG2 cells (% of siScramble) (AC9): 15% ***
